The text below walks through data of patent US5773446A, “Diamino pyrimidines” (Hoffmann-La Roche Inc., priority 1995, dated 1998).

For experiment [1], the target named is T1, purified DHFR of the opportunistic pathogen P. carinii (Pneumocystis carinii, UniProt P16184).
T1 sequence (P16184 1-206): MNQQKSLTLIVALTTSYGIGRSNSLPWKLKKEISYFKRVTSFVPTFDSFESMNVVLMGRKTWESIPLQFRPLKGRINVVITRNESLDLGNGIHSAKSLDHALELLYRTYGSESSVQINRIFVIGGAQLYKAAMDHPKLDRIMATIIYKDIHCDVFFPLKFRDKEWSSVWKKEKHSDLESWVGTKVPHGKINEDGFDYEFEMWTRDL
The experiment is described as follows: biochemical. The text has this: (§1) The inhibition of this enzyme was taken as a measurement for the antibacterial activity.

Experiment [2] has as its target purified DHFR of the reference strain S. aureus ATCC 25923 (Staphylococcus aureus, UniProt P0A017). Kind of experiment: Inhibition of purified DHFR of reference strain S. aureus ATCC 25923. Format: biochemical.
From the text: as §1

Each structure is given as a SMILES string.

Sequence of purified DHFR of the reference strain S. aureus ATCC 25923 (P0A017 whole entry): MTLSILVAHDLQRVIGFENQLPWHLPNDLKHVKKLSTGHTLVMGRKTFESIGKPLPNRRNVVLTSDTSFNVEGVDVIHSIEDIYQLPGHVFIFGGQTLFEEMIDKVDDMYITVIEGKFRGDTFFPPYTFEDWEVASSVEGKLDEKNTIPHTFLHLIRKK

The IC50 is the point on the concentration scale where inhibition reaches its midpoint. A low value points to inhibition by little substance. Turning to `COc1cc(Cc2cnc(N)nc2N)c2c(c1OC)OC(CCCC(=O)O)C=C2` (racemic) [Example 6, (RS)-4-[5-(2,4-diamino-pyrimidin-5-ylmethyl)-7,8-dimethoxy-2H-1-benzopyran-2-yl]-butyric acid], the figures for the IC50 in experiment [1] and in experiment [2] were 0.22 µM and 0.005 µM, respectively.
In the same order, the values of `CCCCCC1C=Cc2c(Cc3cnc(N)nc3N)cc(OC)c(OC)c2O1` (racemic) [Example 7, (RS)-5-(7,8-dimethoxy-2-pentyl-2H-1-benzopyran-5-ylmethyl)-pyrimidine-2,4-diamine] are 2.8 µM and 0.016 µM.
In the same order, the values of `COc1cc(Cc2cnc(N)nc2N)c2c(c1OC)OC(C(C)C)C=C2` (racemic) [Example 8, (RS)-5-(2-isopropyl-7,8-dimethoxy-2H-1-benzopyran-5-ylmethyl)-pyrimidine-2,4-diamine] are 1 µM and 0.001 µM.
Consider `COc1cc(Cc2cnc(N)nc2N)c2c(c1OC)OC(CC(C)C)C=C2` (racemic) [Example 9, (RS)-5-(2-isobutyl-7,8-dimethoxy-2H-1-benzopyran-5-ylmethyl)-pyrimidine-2,4-diamine], for which the IC50 in experiment [1] was 3 µM; in experiment [2], 0.001 µM.
The matching figures for `COc1c(OCCCC(=O)O)cc(Cc2cnc(N)nc2N)c2c1OCC=C2` [Example 10, 4-[5-(2,4-diamino-pyrimidin-5-ylmethyl)-8-methoxy-2H-1-benzopyran-7-yloxy]-butyric acid]: 0.04 µM and 0.005 µM.
